According to patent publication US20200069775A1, “BRAIN OSTEOCALCIN RECEPTOR AND COGNITIVE DISORDERS” (The Trustees of Columbia University in the City of New York, priority 2017, published 2020):

Experiments:
[1] = test system: brainstem neurons (dorsal raphe 5-HT neurons, locus coeruleus, GABAergic interneurons); test: Whole cell current clamp recording in brainstem slices; type: cell-based, mouse; conditions: whole cell current clamp
Description: Brain slice preparations and electrophysiological recordings were performed according to methods known in the art. Briefly, WT mice were anesthetized with ether and then decapitated. The brains were rapidly removed and immersed in an oxygenated bath solution at 40° C. containing (in mM): sucrose 220, KCl 2.5, CaCl2 1, MgC12 6, NaH2PO4 1.25, NaHCO3 26, and glucose 10 pH 7.3 with NaOH. Coronal slices (350 μm thick) containing dorsal raphe (DR) were cut on a vibratome and maintained in a holding chamber with artificial cerebrospinal fluid (ACSF) (bubbled with 5% CO2 and 95% O2) containing (in mM): NaCl 124, KCl 3, CaCl2 2, MgCl2 2, NaH2PO4 1.23, NaHCO3 26, glucose 10, pH 7.4 with NaOH, and were transferred to a recording chamber constantly perfused with bath solution (330 C) at 2 ml/min after at least a 1 hr recovery. Whole-cell current clamp was performed to observe action potentials in DR serotoninergic (5-HT) neurons with a Multiclamp 700A amplifier (Axon instrument, CA). Patch pipettes with a tip resistance of 4-6 MΩ were made of borosilicate glass (World Precision Instruments) with a Sutter pipette puller (P-97) and filled with a pipette solution containing (in mM): K-gluconate (or Cs-gluconate) 135, MgCl2 2, HEPES 10, EGTA 1.1, Mg-ATP 2, Na2-phosphocreatine 10, and Na2-GTP 0.3, pH 7.3 with KOH. After a giga-Ohm (GΩ) seal and whole-cell access were achieved, the series resistance (between 20 and 40 MΩ) was partially compensated by the amplifier. […] All data were sampled at 3-10 kHz and filtered at 1-3 kHz with an Apple Macintosh computer using Axograph 4.9 (Axon Instruments). Electrophysiological data were analyzed with Axograph 4.9 and plotted with Igor Pro software (WaveMetrics, Lake Oswego, Oreg.).

3 month-old WT mice = test: Alendronate treatment with or without osteocalcin, MWMT and NOR; type: in vivo, mouse; conditions: peripheral delivery of osteocalcin, 60 ng/hr by osmotic pump
Description: For plasma injection experiments, 100 μl of plasma were injected 8 times during 24 days, via tail vein. Each group described is represented individually in each panel. For osteocalcin delivery in WT mice, pumps (Alzet micro-osmotic pump, Model 1002) delivering osteocalcin (30 ng/hr for 12 month-old and 90 ng/hr for 16 month-old mice), or vehicle, were surgically installed subcutaneously in the back of mice. […] Control mice receiving vehicle or mice receiving alendronate were implanted with osmotic pumps delivering vehicle only.
Morris water maze test: Animals are transported to the testing room in their home cages, and left undisturbed for at least 30 minutes prior to the first trial. The maze is comprised of a large swimming pool (150cm diameter) filled with water (23° C.) made opaque with non-toxic white paint. The pool is located in a brightly lit room filled with visual cues, including geometric figures on the walls of the maze demarking the four fixed starting positions of the trials, at (12:00, 3:00, 6:00 and 9:00). A 15 cm round platform is hidden 1 cm beneath the surface of the water at a fixed position. Each daily trial block consisted of four swimming trials, with each mouse starting from the same randomly chosen starting position. The starting position is varied between days. On day 1, mice that fail to find the platform within 2 min are guided to the platform. They must remain on the platform for 15 s before they are returned to their home cage. Mice are not guided to the platform after day 1, and the time it takes them to reach the platform over repeated trials ([…] for the next 10 days) is recorded as a measure of spatial learning.
Novel object recognition test (NOR): The NOR paradigm assesses the rodent's ability to recognize a novel object in the environment. The NOR task will be conducted, as previously described7, in an opaque plastic box using 2 different objects: (1) a clear plastic funnel (diameter 8.5 cm, maximal height 8.5 cm) and (2) a black plastic box (9.5 cm^3). These objects elicit equal levels of exploration as determined in pilot experiments (Denny, C. A., et al., 2012, Hippocampus 22:1188-1201; Oury, F., et al., 2013, Cell 155:228-241). The NOR paradigm consists of 3 exposures over the course of 3 days. On day 1, the habituation phase, mice are given 5 minutes to explore the empty arena, without any objects. On day 2, the familiarization phase, mice are given 10 minutes to explore 2 identical objects, placed at opposite ends of the box. On day 3, the test phase, mice are given 15 minutes to explore 2 objects, one novel object and a copy of the object from the familiarization phase. The object that serves as the novel object (either the funnel or the box) as well as the left/right starting position of the objects are counterbalanced within each group. Mice are placed in the center of the arena at the start of each exposure. […] Preference for the novel object is assessed based on the fraction of time that a mouse spends exploring the novel object compared to the familiar object. Exploration is scored from video recordings of each exposure and recorded using the Stopwatch program. […]
Streptavidin were added for 30 minutes at room temperature followed by PBS washes. […] For hormonal measurement; circulating levels of the carboxylated, undercarboxylated or uncarboxylated forms of osteocalcin were measured by ELISA. CTX content in serum (ng/ml) were measured with specific ELISAs (RatLaps™ (CTX-I) EIA (Immunodiagnosticsystems).

[2] = test system: mouse primary hindbrain neurons (MPHN); test: Calcium flux in mouse primary hindbrain neurons; type: cell-based
Description: For calcium imaging, primary hindbrain neurons seeded on 12 mm coverslips were allowed the appropriate time to form structural networks. These cultures were washed with HBSS and loaded with 2.5 μM FURA-2, AM calcium indicator for 45 minutes at room temperature, according to the manufacturer's protocol. Cells were then washed to remove excess indicator and incubated for 30 minutes to allow internalized esters to become de-esterified. 30 ng/ml of osteocalcin was prepared with the control buffer of 1× HBBS supplemented with 10 mM HEPES buffer and 2 mM CaCl2. Using a Zeiss microscope with a perfusion system, coverslips were first perfused with control and osteocalcin. After each stimulation, cells were depolarized with 50 mM KCl to determine the percentage of live cells being imaged. All treatments were recorded using two-photon laser scanning microscopy by Prairie Technologies and analyzed by Z axis profile plotting using ImageJ.
To determine if osteocalcin acts directly on neurons to modulate neurotransmitter synthesis, several types of assays were performed. First, brainstem and midbrain explants from WT and Gprc6a^−/− mice were generated. […] Third, to further confirm that osteocalcin signals in neurons of the hindbrain, calcium flux in MPHN treated with undercarboxylated or carboxylated osteocalcin (FIG. 3F) was measured.

## osteocalcin: Recombinant osteocalcin bacterially produced, cleaved from the GST subunit; completely undercarboxylated at all three sites; full-length mouse osteocalcin (YLGASVPSPDPLEPTREQCELNPACDELSDQYGLKTAYKRIYGITI)
[1]
  action potential frequency in neurons of the locus coeruleus: decreases it
  action potential frequency of brainstem neurons: activates the action potential frequency
  action potential frequency of the GABAergic interneurons of the hindbrain: inhibits the action potential frequency
3 month-old WT mice
  behavioral abnormalities (MWMT, NOR) of alendronate-treated mice: corrected
[2]
  calcium fluxes: induced changes in calcium fluxes
